Assay results published in US9315475B2 (MERCK SHARP & DOHME CORP., priority 2011, dated 2016).

system: HIV-1 (H9IIIB strain); experiment: Antiviral acute infection assay in cell culture (Spread); assay type: cell-based; details: Human immunodeficiency virus 1, T-lymphoid, HIV-1 H9IIIB infection of MT-4 human T-lymphoid cells in 10% FBS; mean of at least two independent experiments
Source text: Antiviral Assays in Cell Culture (“Spread”)
Acute Infection Assay (“Spread”) data were generated using HIV-1 (H9IIIB strain) infection of MT-4 human T-lymphoid cells in 10% FBS, and according to the methods disclosed by J. P. Vacca et al, “L-735,524: An orally bioavailable human immunodeficiency virus type 1 protease inhibitor,” Proc. Natl. Acad. Sci. USA, Vol. 91, pp. 4096-4100 (April 1994).

Compared with `COC(=O)N[C@H](C(=O)Nc1cncc(F)c1CC[C@@H]1CN[C@H](COC(=O)NCC(F)(F)F)CO1)[C@@H](c1ccc(F)cc1)c1cccc(Cl)c1` [Example 301, (βS)-3-chloro-β-(4-fluorophenyl)-N-(5-fluoro-4-{2-[(2R, 5S)-5-({[(2,2,2-trifluoroethyl)carbamoyl]oxy}methyl)morpholin-2-yl]ethyl}pyridin-3-yl)-Nα-(methoxycarbonyl)-L-phenylalaninamide], `COC(=O)N[C@H](C(=O)Nc1cncc(F)c1CC[C@@H]1CN[C@H](COC(=O)NCC(F)(F)F)CO1)[C@@H](c1ccc(Cl)cc1)c1cccc(OC(F)(F)F)c1` [Example 106, (βS)-β-(4-Chlorophenyl)-N-(5-fluoro-4-{2-[(2R,5S)-5-({[(2,2,2-trifluoroethyl)carbamoyl]oxy}methyl)morpholin-2-yl]ethyl}pyridin-3-yl)-Nα-(methoxycarbonyl)-3-(trifluoromethoxy)-L-phenylalaninamide] is 3.8-fold lower in EC50: 25 nM for the first, 6.5 nM for the second.

Going from `O=C(CC(F)(F)F)NC[C@@H]1CO[C@H](CCc2c(F)cncc2NC(=O)CC(c2ccc(F)cc2)c2ccc(F)cc2)CN1` [Example 143, N-({(3R,6R)-6-[2-(3-{[3,3-Bis(4-fluorophenyl)propanoyl]amino}-5-fluoropyridin-4-yl)ethyl]morpholin-3-yl}methyl)-3,3,3-trifluoropropanamide] to `O=C(CC(c1ccc(F)cc1)c1ccc(F)cc1)Nc1cncc(F)c1CC[C@@H]1CN[C@H](COC(=O)NCc2ccc(F)cc2)CO1` [Example 176, {(3S,6R)-6-[2-(3-{[3,3-bis(4-fluoro-phenyl)propanoyl]amino}-5-fluoropyridin-4-yl)ethyl]morpholin-3-yl}methyl (4-fluorobenzyl)carbamate], the EC50 rises from 40 nM to 73 nM (1.8-fold).

Compared with `N[C@H](C(=O)Nc1cccc(F)c1CC[C@@H]1CN[C@H](COC(=O)NCC(F)(F)F)CO1)[C@@H](c1ccc(F)cc1)C1CCOCC1` [Example 128, (βR)-4-Fluoro-N-(3-fluoro-2-{2-[(2R,5S)-5-({[(2,2,2-trifluoroethyl)carbamoyl]oxy}methyl)morpholin-2-yl]ethyl}phenyl)-β-(tetrahydro-2H-pyran-4-yl)-L-phenylalaninamide], `N[C@H](C(=O)Nc1cccc(F)c1CC[C@@H]1CN[C@H](COC(=O)NCC(F)(F)F)CO1)[C@@H](c1ccc(Cl)cc1)c1ccncc1F` [Example 136, (βS)-4-Chloro-β-(3-fluoropyridin-4-yl)-N-(3-fluoro-2-{2-[(2R,5S)-5-({[(2,2,2-trifluoroethyl)carbamoyl]oxy}methyl)morpholin-2-yl]ethyl}phenyl)-L-phenylalaninamide] is 1.5-fold lower in EC50: 91 nM for the first, 60 nM for the second. The second is the more potent here.

`COC(=O)N[C@H](C(=O)Nc1cccc(F)c1CC[C@@H]1CN[C@H](COC(=O)NCC(F)(F)F)CO1)[C@@H](c1ccc(F)cc1)c1ccc(OC(F)(F)F)cc1` [Example 304, (βR)-β-(4-fluorophenyl)-N-(3-fluoro-2-{2-[(2R,5S)-5-({[(2,2,2-trifluoroethyl)carbamoyl]oxy}methyl)morpholin-2-yl]ethyl}phenyl)-Nα-(methoxy-carbonyl)-O-(trifluoromethyl)-L-tyrosinamide] and `COC(=O)N[C@H](C(=O)Nc1cccc(F)c1CC[C@@H]1CN[C@H](COC(=O)NCC(F)(F)F)CO1)[C@@H](c1ccc(F)cc1)c1ccccc1OC(F)(F)F` [Example 111, (βS)-4-Fluoro-N-(3-fluoro-2-{2-[(2R,5S)-5-({[(2,2,2-trifluoroethyl)carbamoyl]oxy}methyl)morpholin-2-yl]ethyl}phenyl)-Nα-(methoxycarbonyl)-β-[2-(trifluoromethoxy)phenyl]-L-phenylalaninamide] are within 1.5-fold of each other in EC50: 33 nM for the first, 25 nM for the second.

`COc1ccc([C@H](CC(=O)Nc2cncc(F)c2CC[C@@H]2CN[C@H](COC(=O)NCC(F)(F)F)CO2)c2ccccc2)cc1Cl` [Example 179, {(3S,6R)-6-[2-(3-{[(3R)-3-(3-chloro-4-methoxyphenyl)-3-phenylpropanoyl]amino}-5-fluoropyridin-4-yl)ethyl]morpholin-3-yl}methyl (2,2,2-trifluoroethyl)carbamate] and `CS(=O)(=O)c1ccc([C@@H](CC(=O)Nc2cccc(F)c2CC[C@@H]2CN[C@H](COC(=O)NCC(F)(F)F)CO2)c2cccc(F)c2)cc1` [Example 113, [(3S,6R)-6-{2-[2-Fluoro-6-({(3R)-3-(3-fluorophenyl)-3-[4-(methylsulfonyl)phenyl]propanoyl}amino)phenyl]ethyl}morpholin-3-yl]methyl (2,2,2-trifluoroethyl)carbamate] are within 1.5-fold of each other in EC50: 240 nM for the first, 320 nM for the second.

`O=C(CC(c1ccc(F)cc1)c1ccc(F)cc1)Nc1cncc(F)c1CC[C@@H]1CN[C@H](COC(=O)NCCOc2ccccc2)CO1` [Example 170, {(3S,6R)-6-[2-(3-{[3,3-bis(4-fluoro-phenyl)propanoyl]amino}-5-fluoropyridin-4-yl)ethyl]morpholin-3-yl}methyl (2-phenoxyethyl)carbamate] and `Cc1cc(C)n(CCNC(=O)OC[C@@H]2CO[C@H](CCc3c(F)cncc3NC(=O)CC(c3ccc(F)cc3)c3ccc(F)cc3)CN2)n1` [Example 172, {(3S,6R)-6-[2-(3-{[3,3-bis(4-fluoro-phenyl)propanoyl]amino}-5-fluoropyridin-4-yl)ethyl]morpholin-3-yl}methyl [2-(3,5-dimethyl-1H-pyrazol-1-yl)ethyl]carbamate] are within 1.5-fold of each other in EC50: 61 nM for the first, 60 nM for the second.

`N#Cc1ccc([C@H](c2ccc(F)c(F)c2)[C@H](N)C(=O)Nc2cccc(F)c2CC[C@@H]2CN[C@H](COC(=O)NCC(F)(F)F)CO2)cc1` [Example 102, (βR)-β-(4-Cyanophenyl)-3,4-difluoro-N-(3-fluoro-2-{2-[(2R,5S)-5-({[(2,2,2-trifluoroethyl)carbamoyl]oxy}methyl)morpholin-2-yl]ethyl}phenyl)-L-phenylalaninamide] and `COC(=O)N[C@H](C(=O)Nc1cccc(F)c1CC[C@@H]1CN[C@H](COC(=O)NCC(F)(F)F)CO1)[C@@H](c1ccc(Cl)cc1)c1ccncc1F` [Example 134, (βS)-4-Chloro-β-(3-fluoropyridin-4-yl)-N-(3-fluoro-2-{2-[(2R,5S)-5-({[(2,2,2-trifluoroethyl)carbamoyl]oxy}methyl)morpholin-2-yl]ethyl}phenyl)-Nα-(methoxycarbonyl)-L-phenylalaninamide] are within 1.5-fold of each other in EC50: 37 nM for the first, 28 nM for the second.

Going from `CC(C)C(NC(=O)OC[C@@H]1CO[C@H](CCc2c(F)cncc2NC(=O)CC(c2ccc(F)cc2)c2ccc(F)cc2)CN1)C(C)C` [Example 186, {(3S,6R)-6-[2-(3-{[3,3-bis(4-fluoro-phenyl)propanoyl]amino}-5-fluoropyridin-4-yl)ethyl]morpholin-3-yl}methyl [2-methyl-1-(1-methylethyl)propyl] carbamate] to `O=C(C[C@@H](c1ccc(F)cc1)c1ccsc1)Nc1cccc(F)c1CC[C@@H]1CN[C@H](COC(=O)NCC(F)(F)F)CO1` [Example 183, {(3S,6R)-6-[2-(2-fluoro-6-{[(3S)-3-(4-fluorophenyl)-3-thiophen-3-ylpropanoyl]amino}phenyl)ethyl]morpholin-3-yl}methyl (2,2,2-trifluoroethyl)carbamate], the EC50 rises from 66 nM to 690 nM (10-fold). The first is the more potent here.
